Experiments:
[1] = tested on: Radical scavenging activity; assay: Antioxidant activity assessed as DPPH radical scavenging activity after 30 mins; format: functional
[2] = biological target: T1, Xanthine dehydrogenase/oxidase (Homo sapiens, UniProt P47989); assay: Inhibition of xanthine oxidase assessed as decrease of uric acid generation
[3] = biological target: T1, Xanthine dehydrogenase/oxidase; assay: Inhibition of xanthine oxidase assessed as decrease of superoxide generation

T1 sequence (P47989 whole entry): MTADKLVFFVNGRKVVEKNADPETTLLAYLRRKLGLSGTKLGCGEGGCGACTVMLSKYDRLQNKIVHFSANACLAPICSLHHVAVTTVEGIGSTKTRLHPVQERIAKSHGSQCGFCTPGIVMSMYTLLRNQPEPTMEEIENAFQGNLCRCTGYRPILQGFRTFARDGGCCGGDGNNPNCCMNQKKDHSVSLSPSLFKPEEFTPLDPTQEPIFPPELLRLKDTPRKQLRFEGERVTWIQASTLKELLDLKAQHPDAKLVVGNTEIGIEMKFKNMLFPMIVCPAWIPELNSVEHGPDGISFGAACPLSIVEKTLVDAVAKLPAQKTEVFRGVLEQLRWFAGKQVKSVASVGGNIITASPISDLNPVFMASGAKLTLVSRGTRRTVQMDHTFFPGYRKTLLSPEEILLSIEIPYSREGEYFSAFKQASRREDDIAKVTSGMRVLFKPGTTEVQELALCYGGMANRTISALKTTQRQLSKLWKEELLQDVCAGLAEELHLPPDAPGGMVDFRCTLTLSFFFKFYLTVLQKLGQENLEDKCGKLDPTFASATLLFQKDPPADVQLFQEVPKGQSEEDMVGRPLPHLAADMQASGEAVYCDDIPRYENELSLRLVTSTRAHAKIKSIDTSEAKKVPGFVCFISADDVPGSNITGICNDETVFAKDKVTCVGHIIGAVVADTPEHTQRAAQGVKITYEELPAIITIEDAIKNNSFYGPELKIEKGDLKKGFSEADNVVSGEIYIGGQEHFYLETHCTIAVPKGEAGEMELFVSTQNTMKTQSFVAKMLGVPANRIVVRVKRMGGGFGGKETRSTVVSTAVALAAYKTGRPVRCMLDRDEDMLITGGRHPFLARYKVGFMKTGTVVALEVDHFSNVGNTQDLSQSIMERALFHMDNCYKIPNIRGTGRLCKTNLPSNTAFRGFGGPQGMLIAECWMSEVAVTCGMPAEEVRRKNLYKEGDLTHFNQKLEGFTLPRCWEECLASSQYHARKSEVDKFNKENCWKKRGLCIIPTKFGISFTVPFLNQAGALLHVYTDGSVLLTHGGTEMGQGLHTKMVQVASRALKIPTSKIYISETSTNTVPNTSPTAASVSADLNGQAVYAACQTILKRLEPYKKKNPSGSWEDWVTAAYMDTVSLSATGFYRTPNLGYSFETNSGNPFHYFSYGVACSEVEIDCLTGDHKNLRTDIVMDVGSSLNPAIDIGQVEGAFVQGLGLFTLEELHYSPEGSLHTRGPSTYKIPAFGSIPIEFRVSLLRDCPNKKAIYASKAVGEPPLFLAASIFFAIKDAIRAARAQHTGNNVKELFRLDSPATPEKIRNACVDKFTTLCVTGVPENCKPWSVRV

SMILES	IC50 [1]	IC50 [2]	IC50 [3]
O=C1O[C@H]([C@@H](O)CO)C(O)=C1O [ASCORBIC ACID]	52.3 µM		
O=c1c(-c2ccc(O)cc2)coc2c(O)c(O)ccc12	21.5 µM	> 1000 µM	6.6 µM
O=c1c(-c2ccc(O)c(O)c2)coc2cc(O)ccc12	28.7 µM	> 1000 µM	16.8 µM
Cc1c(C)c2c(c(C)c1O)CCC(C)(C(=O)O)O2 (configuration not stated) [TROLOX]	48.9 µM		
O=c1c(-c2ccc(O)cc2)coc2cc(O)cc(O)c12 [GENISTEIN]		> 1000 µM	232 µM

Further lines, results first:

IC50 [1]	IC50 [2]	IC50 [3]	SMILES
32.6 µM	> 1000 µM	> 1000 µM	O=c1c(-c2ccc(O)cc2)coc2cc(O)c(O)cc12
	> 1000 µM	430 µM	O=c1c(-c2ccc(O)cc2)coc2cc(O)ccc12 [DAIDZEIN]
	> 1000 µM	683 µM	COc1cc2c(=O)c(-c3ccc(O)cc3)coc2cc1O [GLYCITEIN]
